Measured values from patent US6416987B1, “Mutants of thymidylate synthase and uses thereof” (Sloan Kettering Institute for Cancer Research, priority 1997, dated 2002).
Like-named read-outs stand apart in the source and are kept apart here.

What was measured:
[1] = test system: TS-negative FSthy21 cells transfected with G52S mutant human TS cDNA; type: cell-based, mouse
[2] = test system: TS-negative FSthy21 cells transfected with I108F mutant human TS cDNA; type: cell-based, mouse; conditions: AG337; 1108F/clone (2) vs wild-type clone (2)
[3] = test system: in situ TS activity in AG337-resistant HT1080 cell lines; experiment: Whole cell TS assay (tritium release); type: cell-based, human; conditions: resistant lines HT1080/1b, 2b, 1c, 2c, 1d, 2d, 6e at minimal AG337 concentration giving no detectable TS activity in HT1080
Procedure: Resistance to TS inhibitors was evaluated using the whole cell TS assay for several AG337-resistant sublines and parental cell line HT1080 as a control. […] For the absence of TS inhibitors, cells convert 2′-[5-^3H]-deoxyuridine to dTMP, releasing ^3H2O into the medium. The rate of dTMP synthesis in the presence or absence of drug was assessed at 0, 15, 30, 40 minutes, by measurement of [3H]2O release by charcoal-TCA (trichloroacetic acid) separation of ^3H2O from nucleosides and nucleotides. Radioactivity was quantitated using a liquid scintillation counter (Beckman LS5).
The effect of AG337 on whole cell in situ TS activity was measured by the tritium release assay in HT1080 cells and several resistant cell lines with putative mutations. The cell lines HT1080/1b, HT1080/2b, HT1080/1c, HT1080/2c, HT1080/1d, HT1080/2d and HT1080/6e were resistant to AG337. […] This method provided a rapid qualitative confirmation of whether or not a cell line is resistant to AG337.

[4] = test system: TS-negative FSthy21 cells transfected with F225L mutant human TS cDNA; type: cell-based, mouse; conditions: AG337; F225L/clone (3) vs wild-type clone (1)
[5] = test system: TS-negative FSthy21 cells transfected with L221A mutant human TS cDNA; type: cell-based, mouse; conditions: AG337; L221A/clone (2) vs wild-type clone (1)
[6] = test system: TS-negative FSthy21 cells transfected with D49G mutant human TS cDNA; type: cell-based, mouse
[7] = test system: mouse bone marrow cells transfected with wild type TS (TS161); experiment: CFU-GM / HPPCFU-C assay, marrow transfected with plasmid TS161; type: cell-based
Procedure: (§1) DNA into Mouse Bone Marrow Progenitor Cells Twenty micrograms of plasmid DNA (TS161 or TS175) and ten micrograms of DOTAP were diluted to 100 μl with HBS buffer and incubated at room temperature for 10 minutes. The mixture was added to 2×10^6 mouse bone marrow cells suspended in 0.5 ml of IMDM medium (in a 35 mm culture dish). After a 4 hour incubation at 37° C., 2 ml of IMDM with 30% FBS was added to each dish and the incubation was continued for 24 hours. […] Transfected cells prepared as described above were distributed into 10×35 mm dishes (3×10^5 cells in […] IMDM media/dish). […] Drug was added at the indicated concentration to each dish and the cells were cultured at 37° C. (5% CO2) for 10-14 days.

[8] = test system: TS-negative FSthy21 cells transfected with F225W mutant human TS cDNA; type: cell-based, mouse; conditions: AG337; F225W/clone (2) vs wild-type clone (1)
[9] = test system: TS-negative FSthy21 cells transfected with L221I mutant human TS cDNA; type: cell-based, mouse; conditions: AG337; L221I/clone (1) vs wild-type clone (1)
[10] = test system: TS-negative FSthy21 cells transfected with L221S mutant human TS cDNA; type: cell-based, mouse; conditions: AG337; L221S/clone (2) vs wild-type clone (1)
[11] = molecular target: TS-negative FSthy21 cells transfected with I108A mutant human TS cDNA (Homo sapiens, UniProt P04818, P2L/I108A, cells depend on it); experiment: Growth inhibition assay (alamar Blue), I108A transfectants; conditions: read-out: IC50 values, 7-day exposure
Procedure: (§3) The mouse TS-negative FSthy21 cells were used as the host for DNA transfections. This cell line, which is a TS-deficient derivative of mouse FM3A cells, was routinely maintained in MEM medium supplemented with 10% fetal bovine serum and 10×10^−5 M thymidine. Transfections were performed by DOTAP, using 10 μg of DNA/culture. Four days after transfection, cells were placed in selective medium, which contain no thymidine and reduced folate. Colonies having the ability to grow in the absence of thymidine were pooled and propagated as a mass culture.
(§4) Logarithmically growing suspension mouse TS-20 negative FSthy21 cells transfected with wild-type or variant human TS cDNA were seeded in 96-well plates at 1,000 cells/well in 180 μl of complete medium. […] Cell viability was measured by the alamar Blue™ assay. This method incorporates an oxidation-reduction (REDOX) indicator that both fluoresces and changes color in response to chemical reduction of growth medium resulting from cell growth. To above 96-well cultured cells, 25 μl of Alamar Blue (Alamar, Sacramento, Calif.) (10% of incubation volume) were added according to the manufacturer's instructions. The culture 96-well plates were then incubated at 37° C. for 4 hours. Viable cells induce chemical reduction of the media which results in a change in REDOX color from blue to red. The intensity of red color (and fluoresces) is proportional to the viable cells. After incubation, fluorescence is was read at 530-560 nm excitation wavelength and 590 nm emission wavelength by an automated plate reader (model EL340; Bio-Tek). Drug concentrations needed to reduce cell growth by 50% (IC50 values) were determined graphically by plotting of cell growth verses inhibitor concentration.
(§5) The effect of three antifolates and FdUrd on the growth characteristics of transfectants that stably express various TS proteins was evaluated by cytotoxicity studies. Cell growth was measured by the alamar blue assay. IC50 values were calculated as the concentration of inhibitor required to inhibit growth by 50% compared to wild-type transfected cells grown under identical conditions.

[12] = test system: TS-negative FSthy21 cells transfected with I108A mutant human TS cDNA; experiment: as above; conditions: for Ratio of IC50 values for mutant/wt cells: AG337
Procedure: as §3, §4, §5

[13] = test system: mouse bone marrow cells (N.B.M.); experiment: CFU-GM / HPPCFU-C assay, N.B.M.; type: cell-based
[14] = test system: TS-negative FSthy21 cells transfected with K47E mutant human TS cDNA; type: cell-based, mouse; conditions: AG337; K47E/clone (2) vs wild-type clone (1)
[15] = test system: mouse bone marrow cells transfected with mutant TS (TS175); experiment: CFU-GM / HPPCFU-C assay, marrow transfected with plasmid TS175; type: cell-based
Procedure: as §1

HT1080 cells = experiment: AG337 sensitivity of HT1080 (colony formation); type: cell-based, human; conditions: drug cytotoxicity assay
Procedure: The optimum concentration of AG337 for selection of resistant clones was determined as follows. The human fibrosarcoma HT1080 cells were seeded into 6-well plates at 100 cells per well and incubated at 37° C. with complete medium. Various concentrations of AG337 were added after 24 hours. Drug-containing medium was changed every 4 days and surviving colonies were counted after 14 days of drug treatment.

[16] = test system: TS-negative FSthy21 cells transfected with F225Y mutant human TS cDNA; type: cell-based, mouse; conditions: AG337; F225Y/clone (1) vs wild-type clone (1)
[17] = cited from earlier work
[18] = in vivo; cited from earlier work
[19] = test system: human colon tumor cell line with Tyr33 to His33 TS; conditions: cited from earlier work
TS = TS (Homo sapiens, UniProt P04818); conditions: enzyme assays; cited from earlier work
cell growth = conditions: cited from earlier work
[20] = test system: murine bone marrow cells infected with I108A mut-TS vector; experiment: CFU-GM assay, marrow infected with I108A mut-TS retroviral vector; type: cell-based
Description: (§2) The following tables 15-17 summarize additional proof that these mutants confer resistance to chemotherapeutic agents by increasing the number of drug resistant CFU-GM colonies formed by murine bone marrow cells infected with retroviral vectors containing these mutant TS cDNAs.

[21] = molecular target: TS-negative FSthy21 cells transfected with wild-type human TS cDNA (Homo sapiens, UniProt P04818, P2L, cells depend on it); experiment: Growth inhibition assay (alamar Blue), TS-negative cells transfected with wild-type human TS cDNA; type: cell-based, mouse; conditions: Tomudex, 7-day exposure, read-out: IC50 values
FPGS = FPGS (Homo sapiens, UniProt Q05932); conditions: cited from earlier work
Normal Bone Marrow cells = experiment: CFU-GM assay, Normal Bone Marrow (retroviral vector study); type: cell-based, murine
Description: as §2

[22] = test system: murine bone marrow cells infected with Wt TS vector; experiment: CFU-GM assay, marrow infected with Wt TS retroviral vector; type: cell-based

Sequence of TS-negative FSthy21 cells transfected with wild-type human TS cDNA (P04818 whole entry P2L): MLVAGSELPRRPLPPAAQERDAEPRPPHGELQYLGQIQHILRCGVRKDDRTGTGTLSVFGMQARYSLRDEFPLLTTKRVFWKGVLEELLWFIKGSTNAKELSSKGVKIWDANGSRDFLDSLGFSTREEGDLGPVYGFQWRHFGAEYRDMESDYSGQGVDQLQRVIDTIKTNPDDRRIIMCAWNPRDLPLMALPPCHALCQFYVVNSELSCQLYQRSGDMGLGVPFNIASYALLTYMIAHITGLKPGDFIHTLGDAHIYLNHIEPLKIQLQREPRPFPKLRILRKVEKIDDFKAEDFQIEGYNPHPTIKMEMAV
Sequence of TS-negative FSthy21 cells transfected with I108A mutant human TS cDNA (Homo sapiens, UniProt P04818, P2L/I108A, cells depend on it) (P04818 whole entry P2L/I108A): as the sequence (P04818 whole entry P2L) above, with I108A counted along it
Sequence of TS (P04818 whole entry): as the sequence (P04818 whole entry P2L) above, with L2P counted along it
Sequence of FPGS (Q05932 43-587, species assumed): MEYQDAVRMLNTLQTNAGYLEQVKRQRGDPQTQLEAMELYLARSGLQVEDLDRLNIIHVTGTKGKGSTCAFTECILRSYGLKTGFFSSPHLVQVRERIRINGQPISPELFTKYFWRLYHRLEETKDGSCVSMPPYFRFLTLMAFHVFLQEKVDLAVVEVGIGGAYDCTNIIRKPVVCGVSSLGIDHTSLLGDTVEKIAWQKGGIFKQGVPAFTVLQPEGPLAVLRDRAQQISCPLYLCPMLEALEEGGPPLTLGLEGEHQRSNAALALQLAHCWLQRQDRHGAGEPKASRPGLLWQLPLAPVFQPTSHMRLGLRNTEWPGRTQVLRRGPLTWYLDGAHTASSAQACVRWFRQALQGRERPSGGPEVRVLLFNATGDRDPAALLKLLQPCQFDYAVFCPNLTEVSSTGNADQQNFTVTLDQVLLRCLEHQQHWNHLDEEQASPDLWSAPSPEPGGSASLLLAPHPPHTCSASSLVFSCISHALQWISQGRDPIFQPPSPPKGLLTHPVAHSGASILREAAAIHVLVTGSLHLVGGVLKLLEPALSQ

## Cc1ccc2nc(N)[nH]c(=O)c2c1Sc1ccncc1 [AG337]
[1]; AG337, G52S/clone (3) vs wild-type clone (1)
  Ratio of IC50 values for mutant/wt cells: 12(1)
[1]; G52S transfectants vs wild-type transfectants
  resistance, IC50 values greater than wild-type transfectants: 12 fold
[2]
  Ratio of IC50 values for mutant/wt cells: 7.0(2)
[3]
  TS activity in whole cells: not totally inhibited
[4]
  Ratio of IC50 values for mutant/wt cells: 1.0(1)
[5]
  Ratio of IC50 values for mutant/wt cells: 5.5(1)
[6]; AG337, D49G/clone (1) vs wild-type clone (1)
  Ratio of IC50 values for mutant/wt cells: 40(1)
[6]; D49G transfectants vs wild-type transfectants
  resistance, IC50 values greater than wild-type transfectants: 40 fold
[7]; AG337 1 × 10^−7 M
  HPPCFU-C colonies: 0
[7]; AG337 1 × 10^−8 M
  CFU-GM colonies: 20
  CFU-GM colonies, % in parentheses: 19%
[7]; AG337 2 × 10^−7 M
  CFU-GM colonies: 0
[8]
  Ratio of IC50 values for mutant/wt cells: 1.0(1)
[9]
  Ratio of IC50 values for mutant/wt cells: 5.2(1)
[10]
  Ratio of IC50 values for mutant/wt cells: 4.5(1)
[11]; AG337, 1108A/clone (1) [175-1]
  GI50: 30.5 ± 3.7 µM
[11]; AG337, 1108A/clone (2) [175-2]
  GI50: 29 ± 2.5 µM
[11]; AG337, 1108A/clone (3) [175-3]
  GI50: 76.6 ± 2.8 µM
[12]; 1108A/clone (1) vs wild-type clone (2)
  Ratio of IC50 values for mutant/wt cells: 80(2)^2
[12]; 1108A/clone (2) vs wild-type clone (2)
  Ratio of IC50 values for mutant/wt cells: 76(2)
[12]; 1108A/clone (3) vs wild-type clone (2)
  Ratio of IC50 values for mutant/wt cells: 200(2)
[12]; clones 175-2 and 175-3
  biggest difference in IC50 values between clones: less than 3 fold
[13]; AG337 1 × 10^−7 M
  HPPCFU-C colonies: 0
[13]; AG337 1 × 10^−8 M
  CFU-GM colonies: 10
  CFU-GM colonies, % in parentheses: 12%
[13]; AG337 2 × 10^−7 M
  CFU-GM colonies: 0
[14]
  Ratio of IC50 values for mutant/wt cells: 5.0(1)
[15]; AG337 1 × 10^−7 M
  HPPCFU-C colonies: 8
  HPPCFU-C colonies, % in parentheses: 6%
[15]; AG337 1 × 10^−8 M
  CFU-GM colonies: 60
  CFU-GM colonies, % in parentheses: 42%
[15]; AG337 2 × 10^−7 M
  CFU-GM colonies: 12
  CFU-GM colonies, % in parentheses: 8%
HT1080 cells
  IC50: 2.1 µM
[16]
  Ratio of IC50 values for mutant/wt cells: 1.5(1)

## C#CCN(Cc1ccc2nc(N)[nH]c(=O)c2c1)c1ccc(C(=O)N[C@@H](CCC(=O)O)C(=O)O)cc1 [CB3717, N^10-propargyl-5,8-dideazafolic acid]
[17]
  aqueous solubility: poor
[18]
  toxicity in Phase I trials: severe renal and hepatic toxicity

## O=c1[nH]c(=O)n([C@H]2C[C@H](O)[C@@H](COP(=O)(O)O)O2)cc1F [FdUMP, 5-fluoro-2-deoxyuridylate]
[19]
  resistance conferred by Tyr33 to His33 substitution: 3- to 4 fold

## Cc1nc2ccc(CN(C)c3ccc(C(=O)N[C@@H](CCC(=O)O)C(=O)O)s3)cc2c(=O)[nH]1 [Tomudex, N-(5-[N-(3,4-dihydro-2-methyl-4-oxoquinazolin-6-ylmethyl)-N-methylamino-]-2-thenoyl)-L-glutamic acid]
TS
  less potent as a TS inhibitor than CB3717: 20 times
Cell growth
  more active in inhibiting cell growth than CB3717: 500 fold
[7]; tomudex 1 × 10^−8 M
  CFU-GM colonies: 28
  CFU-GM colonies, % in parentheses: 26%
  HPPCFU-C colonies: 0
[7]; tomudex 2 × 10^−8 M
  CFU-GM colonies: 0
[11]; Tomudex, 1108A/clone (1) [175-1]
  GI50: 0.0979 ± 0.0171 µM
[11]; Tomudex, 1108A/clone (2) [175-2]
  GI50: 0.0768 ± 0.0073 µM
[11]; Tomudex, 1108A/clone (3) [175-3]
  GI50: 0.174 ± 0.007 µM
[20]; Tomudex 1 × 10^−8 M
  CFU-C: 53
  CFU-C, % in parentheses: 36%
  HPPCFU-C: 26
  HPPCFU-C, % in parentheses: 53%
[20]; Tomudex 2 × 10^−8 M
  CFU-C: 25
  CFU-C, % in parentheses: 15%
[21]; wild-type/clone (1) [161-1]
  GI50: 0.00237 ± 0.00018 µM
[21]; wild-type/clone (2) [161-2]
  GI50: 0.0018 ± 0.00047 µM
[21]; wild-type/clone (3) [161-3]
  GI50: 0.00337 ± 0.00034 µM
[13]; tomudex 1 × 10^−8 M
  CFU-GM colonies: 14
  CFU-GM colonies, % in parentheses: 17%
  HPPCFU-C colonies: 0
[13]; tomudex 2 × 10^−8 M
  CFU-GM colonies: 0
FPGS
  affinity for FPGS higher than that of CB3717: 30 times
[15]; tomudex 1 × 10^−8 M
  CFU-GM colonies: 64
  CFU-GM colonies, % in parentheses: 44%
  HPPCFU-C colonies: 9
  HPPCFU-C colonies, % in parentheses: 6%
[15]; tomudex 2 × 10^−8 M
  CFU-GM colonies: 14
  CFU-GM colonies, % in parentheses: 10%
Normal Bone Marrow cells; Tomudex 1 × 10^−8 M
  CFU-C: 16
  CFU-C, % in parentheses: 10%
  HPPCFU-C: 0
Normal Bone Marrow cells; Tomudex 2 × 10^−8 M
  CFU-C: 0
[22]; Tomudex 1 × 10^−8 M
  CFU-C: 33
  CFU-C, % in parentheses: 20%
  HPPCFU-C: 10
  HPPCFU-C, % in parentheses: 23%
[22]; Tomudex 2 × 10^−8 M
  CFU-C: 10
  CFU-C, % in parentheses: 6%
